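Briefly, cells in 96-well plates were exposed to five compound concentrations for 48 h, and endpoints were estimated by linear interpolation. TGI: total growth inhibition.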 Where only a bound is given, the exact number is not on record here.

Experimental findings from PubChem BioAssay (NCI) are described below.

Test in all cases: NCI-60 cell line screen, 48 h
The test system of experiment [1] is 786-0 renal.
Experiment [2] has as its system CAKI-1 renal.
The test system of experiment [3] is COLO 205 colon.
The test system of experiment [4] is EKVX NSCLC.
Experiment [5] has as its system HL-60(TB) leukemia.
In experiment [6] the test system is IGROV1 ovarian.
The subject of experiment [7] is KM12 colon.
The test system of experiment [8] is LOX IMVI melanoma.
Experiment [9] relates to LXFL 529 NSCLC.
Experiment [10] deals with M14 melanoma.
The subject of experiment [11] is NCI-H226 lung.
The subject of experiment [12] is OVCAR-8 ovarian.
Experiment [13] has as its system SF-295 CNS.
In experiment [14] the test system is SF-539 CNS.
For experiment [15], the system named is SK-MEL-28 melanoma.
Experiment [16] deals with UO-31 renal.
Experiment [17] has as its system BT-549 breast.
The test system of experiment [18] is HS 578T breast.
Experiment [19] relates to MCF7 breast.
The test system of experiment [20] is NCI/ADR-RES ovarian.

As for `O=C(Nc1cc(C(F)(F)F)ccc1Cl)C(=O)C(C(=O)c1ccc2ccccc2c1)C1OC(=O)c2ccccc21` (stereo not given), the TGI is 17.7 µM in experiment [1]; above 52.5 µM in [2]; 37.3 µM in experiment [3]; 34.8 µM in experiment [4]; 37.3 µM in experiment [5]; above 92.5 µM in experiment [6]. In addition, the TGI in experiment [7] is 27.4 µM; in [8], 25.7 µM; in [9] it was 20.5 µM; in experiment [10], 25 µM; in experiment [11] it was 3.36 µM; in [12], 24.8 µM. Besides, the TGI came out at 27.6 µM in [13], 6.94 µM in experiment [14], 13.1 µM in experiment [15] and 28.2 µM in [16].

Turning to `CCC(C)(C)NC1=C(NC(C)=O)C(=O)c2ccccc2C1=O`, the TGI is above 75 µM in [1]; above 75 µM in experiment [3]; above 75 µM in experiment [4]; 43 µM in experiment [5]; above 75 µM in experiment [6]; above 75 µM in experiment [7]. For the same compound, the TGI in experiment [8], in experiment [9], in [10], in experiment [11], in experiment [12] and in experiment [13] was above 75 µM each time. The TGI in experiment [14], in [15] and in experiment [16] was above 75 µM throughout.

Take `CCC(=S)N(C)O`: the TGI in [1] is above 81.1 µM; in experiment [17], above 100 µM; in experiment [2] it was above 100 µM; in [3], above 79 µM; in experiment [4] it was above 100 µM; in [5], 13.6 µM. The TGI in [18] is above 100 µM; in experiment [6], above 37 µM; in experiment [7] it was above 93.1 µM; in experiment [8] it was 51.8 µM; in experiment [9] it was above 100 µM; in experiment [10], above 100 µM. Also, the TGI in experiment [19] was above 100 µM; in experiment [11], above 100 µM; in experiment [20], above 100 µM; in experiment [12], above 97.1 µM; in [13], above 100 µM; in experiment [14] it was 84.1 µM. The TGI was above 100 µM in [15] and 68.9 µM in [16].

As for `CC1=CCC2(C#N)CCC1C2=O` (stereo not given), the TGI in experiment [1], in [2], in [3], in experiment [4], in [5] and in [6] was above 100 µM in each case. In addition, the TGI in [7], in experiment [8], in experiment [9], in experiment [10], in experiment [11] and in [12] was above 100 µM in each case. For the same compound, the TGI in experiment [13], in experiment [14] and in experiment [16] was above 100 µM each time.

Regarding `CC(C)NC(C)Cc1ccccc1` (stereo not given), the TGI in [1], in [2], in experiment [3], in [4], in experiment [5] and in [6] was above 100 µM throughout. The TGI in experiment [7], in experiment [8], in experiment [9], in experiment [10], in [11] and in experiment [12] was above 100 µM throughout. Moreover, the TGI in experiment [13], in experiment [14], in experiment [15] and in experiment [16] was above 100 µM throughout.

Regarding `C(/COc1cccnc1)=N\NC1=NCCN1`, the TGI in experiment [1], in experiment [2], in experiment [3], in [4], in [5] and in experiment [6] was above 100 µM in each case. Also, the TGI in experiment [7], in experiment [8], in [9], in experiment [10], in experiment [11] and in experiment [12] was above 100 µM in each case. Besides, the TGI in [13], in experiment [14], in experiment [15] and in experiment [16] was above 100 µM in each case.

As for `Cc1oc2c(c1C(=O)c1ccccc1)C(=O)c1ccccc1C2=O`, the TGI in [1] is 10.6 µM; in experiment [17], 19.9 µM; in experiment [2], 9.12 µM; in experiment [3] it was 36.5 µM; in experiment [4], 29.6 µM; in experiment [5], 17.1 µM. In addition, the TGI is above 100 µM in [18]; 15.9 µM in experiment [6]; 18.7 µM in [7]; 7.52 µM in [8]; 3.1 µM in experiment [9]; 10.1 µM in [10]. Moreover, the TGI was 10.6 µM in experiment [19]; 23.3 µM in experiment [11]; 20.7 µM in experiment [20]; 18.6 µM in experiment [12]; 22.1 µM in [13]; 24.7 µM in [14]. Also, the TGI in experiment [15] turned out to be 24.3 µM; in experiment [16], 22.4 µM.

Take `CN/N=C(\C)CC(=O)Nc1cccc(Cl)c1C`: the TGI in [1], in experiment [2], in [3], in [4], in [5] and in experiment [6] was above 100 µM throughout. The TGI in [7], in [8], in experiment [9], in [10], in [11] and in experiment [12] was above 100 µM each time. Also, the TGI in experiment [13], in experiment [14], in [15] and in experiment [16] was above 100 µM each time.

Consider `COC(=O)C(C(=O)C(=O)Nc1ccccc1OC)c1csc(-n2nc(-c3ccccc3)cc2-c2ccccc2)n1` (stereo not given), for which the TGI in experiment [1], in experiment [2], in experiment [3], in [4], in experiment [5] and in [6] was above 100 µM throughout. Moreover, the TGI in experiment [7], in experiment [8], in experiment [9], in experiment [10], in experiment [11] and in [12] was above 100 µM each time. This compound showed a TGI in experiment [16] above 100 µM.

With `CC(C)(C)C1CCC2c3c([nH]c4ccccc34)C3C(=O)N(c4ccc(Br)cc4)C(=O)C3C2C1` (stereo not given), the TGI in experiment [1] was 37.3 µM; in [2], 43.8 µM; in experiment [3], 23.3 µM; in [4] it was 63.2 µM; in experiment [5], 29.5 µM; in [6], 48 µM. Further, the TGI in experiment [7] is 53.8 µM; in experiment [8], 29.2 µM; in [9], 48.1 µM; in experiment [10] it was above 100 µM; in experiment [11] it was 36.1 µM; in [12], 42.9 µM. The TGI was 63.1 µM in experiment [13], 38.7 µM in experiment [14], above 100 µM in [15] and 27.2 µM in experiment [16].

For the compound `CCC12C=CCN3CC[C@]4(C(=C(C(=O)OC)[C@@H]1Nc1ccn(C5OC(COC(C)=O)C(OC(C)=O)C5OC(C)=O)c(=O)n1)Nc1ccccc14)C32` (stereo not given in full), the TGI in experiment [1] amounted to 8.9 µM; in experiment [2] it was 15.8 µM; in experiment [3], 8.11 µM; in experiment [4], 14.3 µM; in experiment [5] it was 12.6 µM; in [6] it was 9.68 µM. For the same compound, the TGI turned out to be 2.54 µM in experiment [7]; 7.81 µM in experiment [8]; 8.94 µM in [9]; 8.51 µM in experiment [10]; 8.25 µM in experiment [11]; 11 µM in experiment [12]. Moreover, the TGI in [13] is 10.2 µM; in experiment [14], 9.17 µM; in [15] it was 8.43 µM; in [16] it was 7.64 µM.

For the compound `Cc1ccc(S(=O)(=O)C2=c3ncccc3=C3C(=O)c4ccccc4C(=O)C32)cc1` (stereo not given), the TGI in experiment [1] was 50.3 µM; in experiment [17] it was above 88.6 µM; in experiment [2], above 100 µM; in experiment [3], above 100 µM; in experiment [4] it was above 100 µM; in experiment [5] it was above 100 µM. Moreover, the TGI in experiment [18] was 81.8 µM; in [6], above 62.2 µM; in experiment [7], above 76.6 µM; in [8], above 100 µM; in experiment [9], above 100 µM; in experiment [10], above 100 µM. Besides, the TGI in experiment [19] was above 100 µM; in experiment [11], above 100 µM; in [20], above 100 µM; in experiment [12] it was above 100 µM; in [13], above 100 µM; in experiment [14], 46.1 µM. Also, the TGI in experiment [15] and in experiment [16] was above 100 µM throughout.

With `C=C1CC2(OC1=O)c1ccccc1CCc1ccccc12`, the TGI was determined as 3.17 µM in experiment [1]; 3.78 µM in [17]; 3.82 µM in experiment [2]; 3.57 µM in [3]; 20.3 µM in experiment [4]; 3.26 µM in experiment [5]. Further, the TGI in [18] stood at 5.03 µM; in [6] it was 14.1 µM; in experiment [7], 9.4 µM; in [8] it was 2.9 µM; in experiment [9] it was 3.07 µM; in experiment [10], 3.91 µM. The TGI is 16.2 µM in experiment [19]; 26.8 µM in [11]; 3.04 µM in experiment [20]; 9.9 µM in [12]; 29.8 µM in experiment [13]; 4.06 µM in experiment [14]. Besides, the TGI in [15] is 3.35 µM; in [16] it was 20.6 µM.

For `CC1=NN(C(=O)c2ccc(Cl)cc2)C(=O)/C1=C/c1cccc(O)c1`, the TGI in [1], in [2], in experiment [3], in [4], in experiment [5] and in experiment [6] was above 100 µM throughout. Further, the TGI in [7], in experiment [8], in [9], in experiment [10], in [11] and in experiment [12] was above 100 µM each time. The TGI in experiment [13], in experiment [14], in [15] and in [16] was above 100 µM each time.
